In US5631401A, “Inhibitors of protein farnesyltransferase and squalene synthase” (Abbott Laboratories, priority 1995, dated 1997):

Columns and labels:
[1] = target: T1, Rat brain protein farnesyltransferase (Rattus norvegicus, UniProt Q02293+Q04631); test: In vitro inhibition of protein farnesyltransferase (biotin-lamin substrate, scintillation proximity assay); assay type: biochemical; conditions: for inhibition at 1 µM: 1 μM (footnote *), read-out: % Inhibition at 1 μM (protein farnesyltransferase, values marked *); for inhibition at 10 µM: compared to uninhibited control
T1 construct: The enzyme was purified according to Reiss, Y., et al., Cell, 62: 81-88 (1990), utilizing steps one through three; from tissue; host or cells: rat brain
Summary of the method: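 Protein farnesyltransferase isolated from rat brain was purified following steps one through three of the Reiss et al. method, giving a specific activity of about 10 nmol substrate farnesylated/mg enzyme/hour. Activity was measured with a commercial Amersham scintillation proximity assay kit, using biotin-lamin as the acceptor substrate and radioactive farnesyl diphosphate as the donor.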

[2] = target: T2, Rat liver microsomal squalene synthase (Rattus norvegicus, UniProt Q02769); test: In vitro inhibition of squalene synthase (rat liver microsomes, 3H-farnesyl diphosphate); assay type: biochemical; conditions: for inhibition at 1 µM: compared to controls with no test compound; for inhibition at 10 µM: 10 μM (footnote *), read-out: % Inhibition at 10 μM (squalene synthase, values marked *)
T2 construct: Rat liver microsomes, the source of enzyme, were prepared; from tissue; host or cells: rat liver microsomes
T2 sequence (Q02769 1-416): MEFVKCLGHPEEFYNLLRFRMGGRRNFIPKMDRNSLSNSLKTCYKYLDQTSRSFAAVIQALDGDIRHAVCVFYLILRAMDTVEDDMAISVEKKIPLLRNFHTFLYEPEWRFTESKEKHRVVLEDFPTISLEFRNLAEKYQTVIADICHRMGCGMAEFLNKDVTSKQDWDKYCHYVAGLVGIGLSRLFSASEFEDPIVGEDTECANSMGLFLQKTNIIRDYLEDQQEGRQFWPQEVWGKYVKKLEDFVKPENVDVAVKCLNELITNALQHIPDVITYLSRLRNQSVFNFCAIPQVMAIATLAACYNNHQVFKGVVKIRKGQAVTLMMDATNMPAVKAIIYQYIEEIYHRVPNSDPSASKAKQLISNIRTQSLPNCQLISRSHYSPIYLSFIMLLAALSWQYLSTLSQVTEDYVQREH
Procedure: In vitro inhibition of squalene synthase may be measured by the following procedure.
Rat liver microsomal squalene synthase activity was measured using radioactive farnesyl diphosphate as a substrate and quantitating squalene synthesis by counting the radioactive squalene formed.
Rat liver microsomes, the source of enzyme, were prepared according to the method of Gillies, P. J., et al., Exp. Molec. Pathol. 44: 329-339 (1986), a modification of the procedure of Erickson, S. K., and Cooper, A. D., Metabolism, 29: 991-996 (1980). Approximately 30 μg of microsomal protein was incubated for 10 minutes at 37° C. with 11 μM of ^3 H-farnesyl diphosphate, 49 mCi/mmol, and test compound in the presence of squalene (2 μL), Mg^++, KF, reduced B-nicotinamide adenine dinucleotide phosphate, dithiothreitol, and K2 PO4, pH 7.35, in a total volume of 200 μL. Oxygen was excluded from the closed incubation tube by degassing with nitrogen. The reaction was terminated by the addition of ethanolic KOH and after degassing with N2, the microsomal membranes were solubilized by heating at 60° C. for 30 minutes. The squalene was extracted into hexane, and the squalene was separated from all other radioactive molecules by passage over an activated alumina column. The solution was collected in scintillation vials, evaporated to dryness, liquid scintillation fluid was added, and the radioactivity was determined in a liquid scintillation counter. […]

| inhibition at 1 µM [1] | inhibition at 1 µM [2] | inhibition at 10 µM [1] | inhibition at 10 µM [2] | SMILES |
| --- | --- | --- | --- | --- |
| 92% | 24% | – | – | O=C(O)[C@H]1[C@H](C(=O)N(Cc2ccc(Oc3ccccc3)cc2)Cc2cccs2)[C@H](C(=O)O)[C@H]1C(=O)N(Cc1ccc(Oc2ccccc2)cc1)Cc1cccs1 [Example 73, (1α,2β,3β,4α)-1,3-Di[N-(thien-2-ylmethyl)-N-(4-phenoxybenzyl)aminocarbonyl]cyclobutane-2,4-dicarboxylic acid] |
| – | 35% | 69% | – | CCCCN(Cc1ccc(Oc2ccccc2)cc1)C(=O)[C@H]1[C@H](C(=O)O)[C@H](C(=O)N(CCCC)Cc2ccc(Oc3ccccc3)cc2)[C@H]1C(=O)O [Example 27, (1α,2β,3β,4α)-1,3-Di(N-butyl-N-(4-phenoxybenzyl)aminocarbonyl)cyclobutane-2,4-dicarboxylic acid] |
| – | 20% | 52% | – | O=C(O)[C@H]1[C@H](C(=O)N(Cc2ccc(Oc3ccccc3)cc2)C2CCC2)[C@H](C(=O)O)[C@H]1C(=O)N(Cc1ccc(Oc2ccccc2)cc1)C1CCC1 [Example 99, (1α,2β,3β,4α)-1,3-Di[N-cyclobutyl-N-(4-phenoxybenzyl)aminocarbonyl]cyclobutane-2,4-dicarboxylic acid] |
| – | 20% | 99% | – | O=C(O)[C@H]1[C@H](C(=O)N(Cc2ccc(F)cc2)Cc2ccc(Oc3ccccc3)cc2)[C@H](C(=O)O)[C@H]1C(=O)N(Cc1ccc(F)cc1)Cc1ccc(Oc2ccccc2)cc1 [Example 94, (1α,2β,3β,4α)-1,3-Di[N-(4-fluorobenzyl)-N-(4-phenoxybenzyl)aminocarbonyl]cyclobutane-2,4-dicarboxylic acid] |
| 94% | 49% | – | – | CCCN(Cc1ccc(Oc2ccccc2)cc1)C(=O)[C@H]1[C@H](C(=O)O)[C@H](C(=O)N(Cc2ccccc2)Cc2ccc(Oc3ccccc3)cc2)[C@H]1C(=O)O (relative stereo) [Example 40, (1α,2β,3β,4α)-1-[N-Propyl-N-(4-phenoxybenzyl)aminocarbonyl]-3-[N-benzyl-N-(4-phenoxybenzyl)aminocarbonyl]cyclobutane-2,4-dicarboxylic acid] |
| 61% | 47% | – | – | CCCN(CCc1ccc(Oc2ccccc2)cc1)C(=O)C1C(C(=O)O)C(C(=O)N(CCC)CCc2ccc(Oc3ccccc3)cc2)C1C(=O)O (stereo not drawn) [Example 67, (1α,2β,3β,4α)-1,3-Di[N-propyl-N-(2-(4-phenoxyphenyl)ethyl)aminocarbonyl]cyclobutane-2,4-dicarboxylic acid] |
| – | 25% | 98% | – | O=C(O)[C@H]1[C@H](C(=O)N(Cc2ccccc2)Cc2ccc(Oc3ccccc3)cc2)[C@H](C(=O)O)[C@H]1C(=O)N(Cc1ccccc1)Cc1ccc(Oc2ccccc2)cc1 [Example 16, (1α,2β,3β,4α)-1,3-Di[N-benzyl-N-(4-phenoxybenzyl)aminocarbonyl]cyclobutane-2,4-dicarboxylic acid] |
| 82% | 32% | – | – | O=C(O)C1C(C(=O)N(Cc2ccc(Oc3ccccc3)cc2)Cc2ccco2)C(C(=O)O)C1C(=O)N(Cc1ccc(Oc2ccccc2)cc1)Cc1ccco1 (stereo not drawn) [Example 72, (1α,2β,3β,4α)-1,3-Di[N-(furan-2-ylmethyl)-N-(4-phenoxybenzyl)aminocarbonyl]cyclobutane-2,4-dicarboxylic acid] |
| – | 76% | 86% | – | C[C@@H](c1ccccc1)N(Cc1ccc(Oc2ccccc2)cc1)C(=O)[C@H]1[C@H](C(=O)O)[C@H](C(=O)N(Cc2ccc(Oc3ccccc3)cc2)[C@@H](C)c2ccccc2)[C@H]1C(=O)O [Example 87, (1α,2β,3β,4α)-1,3-Di[N-(S)-α-Methylbenzyl-N-(4-phenoxybenzyl)aminocarbonyl]cyclobutane-2,4-dicarboxylic acid] |
| – | 52% | 74% | – | O=C(O)[C@H]1[C@H](C(=O)N(Cc2ccc(Oc3ccccc3)cc2)CC2CC2)[C@H](C(=O)O)[C@H]1C(=O)N(Cc1ccc(Oc2ccccc2)cc1)CC1CC1 [Example 93, (1α,2β,3β,4α)-1,3-Di[N-Cyclopropylmethyl-N-(4-phenoxybenzyl)aminocarbonyl]cyclobutane-2,4-dicarboxylic acid] |
| – | – | 38% | 50% | CCCCCN(Cc1ccc(Oc2ccccc2)cc1)C(=O)[C@H]1[C@H](C(=O)O)[C@H](C(=O)N(CCCCC)Cc2ccc(Oc3ccccc3)cc2)[C@H]1C(=O)O [Example 29, (1α,2β,3β,4α)-1,3-Di(N-pentyl-N-(4-phenoxybenzyl)aminocarbonyl)cyclobutane-2,4-dicarboxylic acid] |
| – | 52% | 49% | – | CCN(Cc1ccc(Oc2ccccc2)cc1)C(=O)[C@H]1[C@H](C(=O)O)[C@H](C(=O)N(CC)Cc2ccc(Oc3ccccc3)cc2)[C@H]1C(=O)O [Example 17, (1α,2β,3β,4α)-1,3-Di(N-ethyl-N-(4-phenoxybenzyl)aminocarbonyl)cyclobutane-2,4-dicarboxylic acid] |
| – | 33% | 64% | – | CCCN(Cc1ccc(Sc2ccccc2)cc1)C(=O)C1C(C(=O)O)C(C(=O)N(CCC)Cc2ccc(Sc3ccccc3)cc2)C1C(=O)O (centres unmarked) [Example 64] |
| – | – | 80% | 52% | CN(Cc1cccc(Oc2ccccc2)c1)C(=O)[C@H]1[C@H](C(=O)O)[C@H](C(=O)N(C)Cc2cccc(Oc3ccccc3)c2)[C@H]1C(=O)O [Example 19, (1α,2β,3β,4α)-1,3-Di(N-methyl-N-(3-phenoxybenzyl)aminocarbonyl)cyclobutane-2,4-dicarboxylic acid] |
| – | 46% | 54% | – | CCCN(Cc1ccc(Oc2ccccc2)c(C)c1)C(=O)C1C(C(=O)O)C(C(=O)N(CCC)Cc2ccc(Oc3ccccc3)c(C)c2)C1C(=O)O (stereo not drawn) [Example 59, (1α,2β,3β,4α)-1,3-Di{N-propyl-N-[(3-methyl-4-phenoxy)benzyl]aminocarbonyl}cyclobutane-2,4-dicarboxylic acid] |
| – | – | 45% | 26% | CN(Cc1ccc(OCc2ccccc2)cc1)C(=O)[C@H]1[C@H](C(=O)O)[C@H](C(=O)N(C)Cc2ccc(OCc3ccccc3)cc2)[C@H]1C(=O)O [Example 15, (1α,2β,3β,4α)-1,3-Di[N-methyl-N-(4-benzyloxybenzyl)aminocarbonyl]cyclobutane-2,4-dicarboxylic acid] |
| – | 54% | 43% | – | O=C(O)[C@H]1[C@H](C(=O)N(CCCc2ccccc2)Cc2ccc(Oc3ccccc3)cc2)[C@H](C(=O)O)[C@H]1C(=O)N(CCCc1ccccc1)Cc1ccc(Oc2ccccc2)cc1 [Example 79, (1α,2β,3β,4α)-1,3-Di [N-(4-phenoxybenzyl)-N-(3-phenyl-1-propyl)aminocarbonyl]cyclobutane-2,4-dicarboxylic acid] |
| – | 27% | 68% | – | CCCN(Cc1cccc(Oc2ccccc2)c1)C(=O)C1C(C(=O)O)C(C(=O)N(CCC)Cc2cccc(Oc3ccccc3)c2)C1C(=O)O (stereo not drawn) [Example 51, (1α,2β,3β,4α)-1,3-Di[N-propyl-N-(3-phenoxybenzyl)aminocarbonyl]cyclobutane-2,4-dicarboxylic acid] |
| – | 49% | 32% | – | O=C(O)[C@H]1[C@H](C(=O)N(Cc2ccc(Oc3ccccc3)cc2)C2CCCC2)[C@H](C(=O)O)[C@H]1C(=O)N(Cc1ccc(Oc2ccccc2)cc1)C1CCCC1 [Example 97, (1α,2β,3β,4α)-1,3-Di[N-cyclopentyl-N-(4-phenoxybenzyl)aminocarbonyl]cyclobutane-2,4-dicarboxylic acid] |
